Measured values from patent US12637461B2, “Compounds for the activation of AMPK” (PFIZER INC., priority 2022, dated 2026).

Biological target: T1, human AMPK α2β2γ3 (Homo sapiens, UniProt O43741+P54646+Q9UGI9)
T1 construct: expressed in transfected cells; host or cells: HEK293AD cells, MaxCyte bulk electroporation
Experiment: Primary cellular assay: γ3 associated phospho-Thr172 AMPK detection (custom pAMPK Surefire AlphaLISA) in α2β2γ3 bulk transiently transfected HEK293 cells
Type: cell-based
Settings: activation of human AMPK α2β2γ3 (γ3 pThr172 AMPK signal) in transiently transfected HEK293 cells, 20 minutes compound incubation; for Emax: 20 min, read-out: Assay GMean Asy. Max (%); for Emax / Assay GMean Asy. Max (%): geometric mean of the asymptotic max; for EC50: geometric mean EC50, read-out: Assay GMean EC50
Method: Primary Cellular Assay—γ3 Associated Phospho-Thr172 AMPK Detection in α2β2γ3 Bulk Transiently Transfected HEK293 Cells
The cellular potencies of the compounds were evaluated using a custom pAMPK Surefire AlphaLISA designed to assess γ3 associated phospho-Thr172 AMPK and modulation by small molecules in AMPK α2β2γ3 transiently transfected HEK293 cells.
A pAMPK Surefire AlphaLISA (PE-ASLU-PAMPK) assay available through Perkin Elmer was modified to selectively assess γ3 pThr172 AMPK content (as opposed to total pThr172 AMPK) by labeling a γ3 antibody with a CaptSure™ tag and substituting it for the total α1c/α2 AMPK labeled antibodies in the kit. In the modified assay, the overall abundance of γ3 AMPK is recognized by the CaptSure γ3 antibody and the phosphorylated AMPK is recognized by biotinylated pThr172 antibody. Subsequent reactivity with streptavitin donor beads and anti CaptSure conjugated acceptor beads brings the molecules into close proximity. Upon excitation at 680 nm, the donor bead converts ambient oxygen to a more excited singlet state which reacts with the acceptor bead and emits light at 520 to 620 nm. The intensity of the signal is proportional to the level of γ3 associated pThr172 AMPK phosphorylation.
In short, AMPK-α2+β2+γ3 MaxCyte bulk-transfected HEK293AD cells were thawed in growth media (DMEM High glucose+10% FBS) in a collagen-coated T150 flask and the cells were allowed to adhere and grow overnight in a 37° C. incubator. The following day, the cells were harvested and resuspended in plating medium (DMEM Low glucose+10% FBS) at a concentration of 100,000 cells per mL and 50 μL of this cell suspension was added to all wells of a 384-well plate using a Multidrop Combi. The cells were allowed to adhere and grow for 2 days in a 37° C. incubator. On assay day, compounds were diluted in 100% dimethyl sulfoxide (DMSO) in a 11 dose, half log dilution scheme and spotted in the cell plates at 1000× the final concentration. Compound incubations were performed in plating media for 20 minutes. Cells were washed with PBS, lysed and the signal was generated by subsequent additions of RB1 reagent from the kit, 1:1000 CaptSure γ3 labeled antibody in 1× immunoassay buffer, Anti-CaptSure acceptor beads and Streptavitin donor beads at final concentration of […]. The γ3 pThr172 AMPK signal was developed using EnVision™ multilabel reader (Perkin Elmer) using Alphascreen settings. The fluorescence emission was used to calculate the % effect relative to the HPE (30 μM) and ZPE (DMSO). EC50 curves were generated with the ActivityBase software using the XLfit model 205 to determine EC50 and Emax values.
For screening purposes, bulk AMPK-α2+β2+γ3 MaxCyte bulk transfection into HEK293AD cells were generated to support SAR screening as follows.
HEK293AD cells were seeded into 10 flasks at 2.7×10^7 cells per flask. The following day 12 mL of Trypl E dissociation reagent were added to each flask to lift the cells and the cells were then spun at 300×g for 5 minutes. Cells were washed once in MaxCyte EP buffer and then resuspended in MaxCyte EP buffer at 1×10^8 cells per mL. For transfection, 500×10^6 cells in 500 μl MaxCyte EP buffer were placed in a CL1.1 Processing Assembly (electroporation cell) with 1 mg/mL ([…]) of each of the plasmids pcDNA3.1(+)-human AMPK alpha 2, pcDNA3.1(+)-human AMPK beta 2 and pcDNA3.1(+)-human AMPK gamma 3 and the electroporation was carried out on the MaxCyte STX using the HEK293 electroporation protocol. Following electroporation, cells were transferred to a T175 flask containing growth medium (DMEM High glucose+10% FBS) and allowed to recover for 25 minutes, then the cells were resuspended to final volume of 900 mL and distributed into 6XT175 flasks and allowed to adhere and grow overnight in a 37° C. incubator. […]

T1 sequence (P54646 whole entry): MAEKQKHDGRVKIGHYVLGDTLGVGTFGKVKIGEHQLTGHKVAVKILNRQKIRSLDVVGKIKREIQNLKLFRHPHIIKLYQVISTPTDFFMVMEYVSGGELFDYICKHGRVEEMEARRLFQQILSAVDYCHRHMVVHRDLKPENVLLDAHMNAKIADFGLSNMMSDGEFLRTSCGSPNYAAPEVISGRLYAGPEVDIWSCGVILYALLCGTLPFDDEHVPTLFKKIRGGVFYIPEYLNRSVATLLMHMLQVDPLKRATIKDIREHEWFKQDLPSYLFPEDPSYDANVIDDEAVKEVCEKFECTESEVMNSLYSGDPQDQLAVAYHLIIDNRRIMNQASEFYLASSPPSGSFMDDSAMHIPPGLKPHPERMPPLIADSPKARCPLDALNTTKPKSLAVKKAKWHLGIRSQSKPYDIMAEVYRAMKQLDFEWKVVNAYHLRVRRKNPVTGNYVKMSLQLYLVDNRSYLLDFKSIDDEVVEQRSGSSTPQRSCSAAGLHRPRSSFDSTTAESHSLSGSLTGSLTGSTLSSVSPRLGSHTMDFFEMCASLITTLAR
T1 sequence (O43741 whole entry): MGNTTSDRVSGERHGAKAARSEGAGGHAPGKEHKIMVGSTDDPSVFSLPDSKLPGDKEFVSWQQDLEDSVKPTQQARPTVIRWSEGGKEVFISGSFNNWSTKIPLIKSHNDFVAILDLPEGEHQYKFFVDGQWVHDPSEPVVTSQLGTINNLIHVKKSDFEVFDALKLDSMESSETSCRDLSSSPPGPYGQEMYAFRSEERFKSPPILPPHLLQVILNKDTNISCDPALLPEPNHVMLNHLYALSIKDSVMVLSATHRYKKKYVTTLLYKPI
T1 sequence (Q9UGI9 whole entry): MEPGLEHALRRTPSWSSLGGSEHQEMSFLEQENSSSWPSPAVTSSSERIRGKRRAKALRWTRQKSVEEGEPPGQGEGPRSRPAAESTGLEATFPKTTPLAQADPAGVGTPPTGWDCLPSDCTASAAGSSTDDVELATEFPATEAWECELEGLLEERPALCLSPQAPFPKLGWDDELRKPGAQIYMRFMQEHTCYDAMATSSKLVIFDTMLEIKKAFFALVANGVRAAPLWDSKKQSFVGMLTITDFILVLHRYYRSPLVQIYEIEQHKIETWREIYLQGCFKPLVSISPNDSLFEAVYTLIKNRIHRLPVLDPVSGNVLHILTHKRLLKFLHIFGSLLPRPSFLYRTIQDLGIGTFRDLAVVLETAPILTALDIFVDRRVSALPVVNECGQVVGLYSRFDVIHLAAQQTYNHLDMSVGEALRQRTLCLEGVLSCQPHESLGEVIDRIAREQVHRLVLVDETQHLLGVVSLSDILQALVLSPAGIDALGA

SMILES	Emax [%]	EC50 [nM]	Assay GMean Asy. Max (%)
CNCc1ccc(N2CC(C)(c3cccc(Cl)c3F)c3nc(NC4CN(C(=O)C5CC5F)C4)ncc3C2=O)cc1F [compound 80, 8-(3-chloro-2-fluorophenyl)-2-({1-[(1S,2S)-2-fluorocyclopropane-1-carbonyl]azetidin-3-yl}amino)-6-{3-fluoro-4-[(methylamino)methyl]phenyl}-8-methyl-7,8-dihydropyrido[4,3-d]pyrimidin-5(6H)-one, from P11 (ENANT-2)]	154	2500	–
Cn1cnc(N2C[C@](C)(c3cccc(Cl)c3F)c3c(cnc(NC4CN(C(=O)C5CC5C(F)(F)F)C4)c3F)C2=O)c1 (single isomer, unassigned) [compound 97]	–	150	25.8
Cn1cc(F)c(N2C[C@](C)(c3cccc(Cl)c3F)c3c(cnc(NC4CN(C(=O)C(O)CC(F)(F)F)C4)c3F)C2=O)n1 (single isomer, unassigned) [compound 44]	–	78.1	77.9
CC1(c2cccc(Cl)c2F)CN(c2ncccc2F)C(=O)c2cnc(NC3CN(C(=O)[C@](C)(O)C(F)(F)F)C3)nc21 (single isomer, unassigned) [compound 111]	159	342	–
C[C@]1(c2cccc(Cl)c2F)CN(c2ncccc2F)C(=O)c2cnc(NC3CN(C(N)=O)C3)c(F)c21 [Example 19, 3-{[(5R)-5-(3-Chloro-2-fluorophenyl)-4-fluoro-7-(3-fluoropyridin-2-yl)-5-methyl-8-oxo-5,6,7,8-tetrahydro-2,7-naphthyridin-3-yl]amino}azetidine-1-carboxamide]	31.3	87.2	–
CC1(c2cccc(F)c2F)CN(c2ncccc2F)C(=O)c2cnc(NC3CN(C(=O)C4(O)CC4)C3)c(F)c21 (stereo not drawn) [compound 108, 4-(2,3-difluorophenyl)-5-fluoro-2-(3-fluoropyridin-2-yl)-6-{[1-(1-hydroxycyclopropane-1-carbonyl)azetidin-3-yl]amino}-4-methyl-3,4-dihydro-2,7-naphthyridin-1(2H)-one, from P7 (ENANT-2)]	76.8	123	–
Cn1cnc(N2C[C@](C)(c3cccc(Cl)c3F)c3c(cnc(NC4CN(C(=O)[C@@H]5C[C@@H]5F)C4)c3F)C2=O)c1 [compound 94, (4R)-4-(3-chloro-2-fluorophenyl)-5-fluoro-6-({1-[(1S,2S)-2-fluorocyclopropane-1-carbonyl]azetidin-3-yl}amino)-4-methyl-2-(1-methyl-1H-imidazol-4-yl)-3,4-dihydro-2,7-naphthyridin-1(2H)-one]	50.3	212	–
Cn1cc(F)c(N2C[C@](C)(c3cccc(Cl)c3F)c3c(cnc(NC4CN(C(=O)C5CCC(F)(F)CN5)C4)c3F)C2=O)n1 (single isomer, unassigned) [compound 95]	78	125	–
C[C@@H](O)C(=O)N1CC(Nc2ncc3c(c2F)[C@@](C)(c2cccc(Cl)c2F)CN(c2nn(C)cc2F)C3=O)C1 [compound 40, (4R)-4-(3-chloro-2-fluorophenyl)-5-fluoro-2-(4-fluoro-1-methyl-1H-pyrazol-3-yl)-6-({1-[(2R)-2-hydroxypropanoyl]azetidin-3-yl}amino)-4-methyl-3,4-dihydro-2,7-naphthyridin-1(2H)-one]	58.8	113	–
CC1(c2cccc(Cl)c2F)CN(c2ccc(N)cn2)C(=O)c2cnc(NC3CN(C(=O)[C@@H]4C[C@@H]4F)C3)nc21 (single isomer, unassigned) [Example 31]	110	221	–
CC(C)(O)C(=O)N1CC(Nc2ncc3c(c2F)[C@@](C)(c2cccc(Cl)c2F)CN(c2ccc(CO)cn2)C3=O)C1 [compound 57, (4R)-4-(3-chloro-2-fluorophenyl)-5-fluoro-6-{[1-(2-hydroxy-2-methylpropanoyl)azetidin-3-yl]amino}-2-[5-(hydroxymethyl)pyridin-2-yl]-4-methyl-3,4-dihydro-2,7-naphthyridin-1(2H)-one]	84.9	75	–
Cn1cc(F)c(N2C[C@](C)(c3cccc(Cl)c3F)c3c(cnc(NC4CN(C(=O)C5(O)CC5)C4)c3F)C2=O)n1 [compound 62, (4R)-4-(3-chloro-2-fluorophenyl)-5-fluoro-2-(4-fluoro-1-methyl-1H-pyrazol-3-yl)-6-{[1-(1-hydroxycyclopropane-1-carbonyl)azetidin-3-yl]amino}-4-methyl-3,4-dihydro-2,7-naphthyridin-1(2H)-one]	138	98.1	–

The next compounds have a lower EC50 than those just listed; values first:

Emax [%]	EC50 [nM]	Assay GMean Asy. Max (%)	SMILES
77.3	63.9	–	C[C@H](O)c1ccc(N2C[C@](C)(c3cccc(Cl)c3F)c3c(cnc(NC4CN(C(=O)[C@@H]5C[C@@H]5F)C4)c3F)C2=O)nc1 [compound 49, (4R)-4-(3-chloro-2-fluorophenyl)-5-fluoro-6-({1-[(1S,2S)-2-fluorocyclopropane-1-carbonyl]azetidin-3-yl}amino)-2-{5-[(1S)-1-hydroxyethyl]pyridin-2-yl}-4-methyl-3,4-dihydro-2,7-naphthyridin-1(2H)-one]
65.4	47.4	–	C[C@]1(c2cccc(Cl)c2F)CN(c2ccc(CO)cn2)C(=O)c2cnc(NC3CN(C(=O)[C@@H]4C[C@@H]4F)C3)c(F)c21 [compound 52, (4R)-4-(3-chloro-2-fluorophenyl)-5-fluoro-6-({1-[(1S,2S)-2-fluorocyclopropane-1-carbonyl]azetidin-3-yl}amino)-2-[5-(hydroxymethyl)pyridin-2-yl]-4-methyl-3,4-dihydro-2,7-naphthyridin-1(2H)-one]
129	39.9	–	Cn1cc(F)c(N2C[C@](C)(c3cccc(Cl)c3F)c3c(cnc(NC4CN(CC(=O)N(CC(F)(F)F)C5CC5)C4)c3F)C2=O)n1 [compound 74, 2-(3-{[(5R)-5-(3-chloro-2-fluorophenyl)-4-fluoro-7-(4-fluoro-1-methyl-1H-pyrazol-3-yl)-5-methyl-8-oxo-5,6,7,8-tetrahydro-2,7-naphthyridin-3-yl]amino}azetidin-1-yl)-N-cyclopropyl-N-(2,2,2-trifluoroethyl)acetamide]
119	32.7	–	Cc1c(F)ccc(C2(C)CN(c3ccc(CO)cn3)C(=O)c3cnc(NC4CN(C(=O)N5C[C@@H]6C[C@H]5CO6)C4)c(F)c32)c1F (single isomer, unassigned) [compound 107]
49.8	32.1	–	Cc1c(F)ccc(C2(C)CN(c3ccc(N)cn3)C(=O)c3cnc(NC4CN(C(=O)[C@@H]5C[C@@H]5F)C4)c(F)c32)c1F (single isomer, unassigned) [compound 104]
30.9	24	–	C[C@]1(c2cccc(Cl)c2F)CN(c2cc(OC(F)F)ccn2)C(=O)c2cnc(NC3CN(C(=O)[C@@H]4C[C@@H]4F)C3)c(F)c21 [compound 55, (4R)-4-(3-chloro-2-fluorophenyl)-2-[4-(difluoromethoxy)pyridin-2-yl]-5-fluoro-6-({1-[(1S,2S)-2-fluorocyclopropane-1-carbonyl]azetidin-3-yl}amino)-4-methyl-3,4-dihydro-2,7-naphthyridin-1(2H)-one]
